Results published in patent US6723736B2, “Tricyclic compounds and uses thereof” (Theracos, Inc., priority 2000, dated 2004).

Columns and labels:
COX-1 = target: T1, COX-1 (Mus musculus, UniProt P22437); test: Constitutive COX-1 activity in RAW264.7 cells (TXB2 EIA); format: cell-based, murine; conditions: RAW264.7, LPS 0.1 μg/ml 6 hr; higher concentrations of compound B (1-100 μM tested); dexamethasone 1 μM
T1 construct: having no effect on the constitutively expressed COX-1 activity; endogenous in cells; host or cells: RAW264.7 cells, then lysed
T1 sequence (P22437 27-602): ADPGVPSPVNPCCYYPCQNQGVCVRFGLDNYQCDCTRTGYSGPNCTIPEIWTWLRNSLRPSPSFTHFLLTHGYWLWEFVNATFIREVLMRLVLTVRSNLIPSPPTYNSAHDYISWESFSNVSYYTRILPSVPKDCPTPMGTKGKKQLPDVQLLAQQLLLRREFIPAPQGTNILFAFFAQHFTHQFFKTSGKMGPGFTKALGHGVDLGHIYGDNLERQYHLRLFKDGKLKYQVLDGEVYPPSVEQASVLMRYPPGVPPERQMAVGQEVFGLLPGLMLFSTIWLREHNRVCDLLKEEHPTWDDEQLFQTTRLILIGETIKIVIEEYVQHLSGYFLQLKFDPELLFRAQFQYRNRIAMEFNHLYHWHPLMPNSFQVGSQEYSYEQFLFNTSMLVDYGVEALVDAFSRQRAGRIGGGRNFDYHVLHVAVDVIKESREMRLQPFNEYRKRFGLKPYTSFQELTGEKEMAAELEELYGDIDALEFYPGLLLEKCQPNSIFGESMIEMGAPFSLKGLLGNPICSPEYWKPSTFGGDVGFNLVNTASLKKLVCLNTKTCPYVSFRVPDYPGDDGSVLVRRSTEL
Description: (§1) In this experiment, the inhibitory effect of compound B was compared to that of dexamethasone, a potent inhibitor of COX-2 expression. RAW264.7 cells were grown in RPMI-1640 medium containing 3% FBS and pre-incubated for 1 hr at 37° C. with compound B (1, 3, 10, 30 or 100 μM), dexamethasone (Dex, 1 μM), or without drug. After 1 hr LPS (0.1 μg/ml) was added, and the cells were further incubated for 6 hr at 37° C. Control cells received neither drug nor LPS. Cells were collected, lysed and assayed for cyclooxygenase activities essentially according to the method of Brideau et al. (Inflamm Res 45:68-74, 1996). COX-2 activity was measured using the Biotrak Prostaglandin E2 (PGE2) EIA Kit, and COX-1 activity was determined using the Biotrak Thromboxane B2 (TXB2) EIA Kit, both from Amersham Pharmacia Biotech (Piscataway, N.J.).

[1] = test system: Human peripheral blood mononuclear cells (PBMC); test: PBMC cell viability (MTS dye exclusion assay); format: cell-based; conditions: 20 hr, 1-100 μM
Description: (§2) Human peripheral blood mononuclear cells (PBMC) were purified from human blood using Ficoll-Paque PLUS separation medium (Amersham Pharmacia Biotech) according to the manufacturer's recommended protocol. After centrifugation, the central PBMC layer was collected, washed twice with phosphate buffered saline (PBS) and then plated in a 96-well plate at a density of 2×10^5 cells/well in RPMI-1640 medium containing 10% FBS. The cells were preincubated with dexamethasone (1 μM) or Compound B (1, 10, 30 or 100 μM) for 1 hr and then challenged with LPS (1 μg/ml) for 20 hr. Cells receiving no drug treatment, incubated with or without LPS, served as controls. The cell supernatants were collected, and the amount of IL-10 in each was measured by standard ELISA. […] To confirm that the observed decrease in IL-10 was not due to cytotoxicity, the PBMC were plated in a separate plate, incubated for 20 hr with the same range of doses of Compound B, and the cell viability was assessed by a standard MTS dye exclusion assay (4-hr incubation with MTS).

IL-10 production = test: Inhibition of LPS-induced IL-10 production in human PBMC (ELISA); format: cell-based; conditions: human PBMC, 1, 10, 30 or 100 μM 1 hr preincubation, LPS 1 μg/ml 20 hr
Description: as §2

[2] = test system: collagen-induced arthritis in male DBA/1 Lac mice; test: Suppression of collagen-induced arthritis in mice; format: in vivo; conditions: 50 mg/kg orally daily for 17 days, compared to vehicle-treated group
Description: The ability of compound B to reduce inflammation in an animal model of arthritis was also studied. Arthritis was induced by intradermal administration of collagen (100 μg/mice) in complete adjuvant in male DBA/1 Lac mice 7 weeks old. The booster immunization (100 μg/mice) in incomplete adjuvant was given subcutaneously on day 21. Two days later, when arthritic scores were around 1, animals were divided into two groups. One group received 50 mg/kg dose of compound B orally for 17 days daily. The second group received 10% PEG in water and was used as a vehicle-treated group. Body weight (FIG. 6, panel A), clinical score (FIG. 6, panel B), the number of joints affected (FIG. 6, panel C) and paw thickness (FIG. 6, panel D) were monitored 24 hours after drug administration during the treatment period.

[3] = test system: TNF-alpha induced killing of WEHI-13VAR cells; test: Inhibition of TNF-alpha induced cell killing (MTT viability); format: cell-based, mouse
Description: Compounds B and E were tested for their ability to inhibit TNF-alpha induced killing of cultured mouse fibrosarcoma cells. WEHI-13VAR cells were grown in buffered RPMI-1640 medium containing 3% FBS and assayed for TNF-alpha induced cell death as described by Khabar et al. (Immunol Lett 46:107-10, 1995). Cells were co-incubated for 20 hr with 100 pg/ml (FIG. 1A) or 1 pg/ml (FIG. 1B) of TNF-alpha and 100 μg/ml of berberine, compound B or compound E. Controls included cells receiving TNF-alpha but no drug, as well as cells receiving no TNF-alpha and treated with or without NP-40 lysis buffer. Cell viability was assayed using the dye MTT (3-(4,5-dimethylthiozol-2-yl)-2,5-diphenyl tetrazolium bromide) as described.
The dose response was measured for the ability of compound B to inhibit TNF-alpha induced killing of cultured mouse fibrosarcoma cells. In this experiment, the inhibitory action of compound B was compared to that of a chimeric recombinant protein dimer containing soluble TNF receptor fused to the Fc portion of immunoglobulin heavy chain (Mohler KM et al., J Immunol 151:1548-61,1993), a known antagonist of TNF-alpha mediated cell killing. WEHI-13VAR cells were grown in buffered RPMI-1640 medium containing 3% FBS and assayed for TNF-alpha induced cell death as described by Khabar et al. (Immunol Lett 46:107-10, 1995). […]

TNF-alpha production = test: Inhibition of LPS-induced TNF-alpha production in RAW264.7 cells (ELISA); format: cell-based, murine; conditions: RAW264.7, 1-100 μM compound 1 hr pre-incubation, LPS 0.1 μg/ml 6 hr
Description: The ability of compound B to inhibit TNF-alpha production was examined in a standard in vitro model of inflammation—the murine macrophage-like cell line RAW264.7 stimulated with lipopolysaccharides (LPS). RAW264.7 cells were grown in RPMI-1640 medium containing 3% FBS and pre-incubated for 1 hr at 37° C. with varying concentrations (1, 3, 10, 30 or 100 μM) of compound B. LPS (0.1 μg/ml) was then added, and the cells were further incubated for 6 hr at 37° C. in a 5% carbon dioxide atmosphere. Cell supernatants were then collected, aliquoted, and assayed for TNF-alpha by ELISA with anti-TNF-alpha antibody.

IL-6 production = test: Inhibition of LPS-induced IL-6 production in RAW264.7 cells (ELISA); format: cell-based, murine; conditions: RAW264.7, 1-100 μM compound 1 hr pre-incubation, LPS 0.1 μg/ml 6 hr
Description: The ability of compound B to inhibit IL-6 production was also examined in LPS-stimulated RAW cells. RAW264.7 cells were grown in RPMI-1640 medium containing 3% FBS and pre-incubated for 1 hr at 37° C. with varying concentrations (1, 3, 10, 30 or 100 μM) of compound B. LPS (0.1 μg/ml) was then added, and the cells were further incubated for 6 hr at 37° C. in a 5% carbon dioxide atmosphere. Cell supernatants were then collected, aliquoted, and assayed for IL-6 by ELISA with anti-IL-6 antibody.

COX-2 = target: T2, COX-2 (Mus musculus, UniProt Q05769); test: LPS-induced COX-2 activity in RAW264.7 cells (PGE2 EIA); format: cell-based, murine; conditions: RAW264.7, LPS 0.1 μg/ml 6 hr; higher concentrations of compound B (1-100 μM tested); dexamethasone 1 μM
T2 construct: examined in LPS-stimulated RAW cells; endogenous in cells; host or cells: RAW264.7 cells, LPS-stimulated (0.1 µg/ml, 6 hr), then lysed
T2 sequence (Q05769 18-604): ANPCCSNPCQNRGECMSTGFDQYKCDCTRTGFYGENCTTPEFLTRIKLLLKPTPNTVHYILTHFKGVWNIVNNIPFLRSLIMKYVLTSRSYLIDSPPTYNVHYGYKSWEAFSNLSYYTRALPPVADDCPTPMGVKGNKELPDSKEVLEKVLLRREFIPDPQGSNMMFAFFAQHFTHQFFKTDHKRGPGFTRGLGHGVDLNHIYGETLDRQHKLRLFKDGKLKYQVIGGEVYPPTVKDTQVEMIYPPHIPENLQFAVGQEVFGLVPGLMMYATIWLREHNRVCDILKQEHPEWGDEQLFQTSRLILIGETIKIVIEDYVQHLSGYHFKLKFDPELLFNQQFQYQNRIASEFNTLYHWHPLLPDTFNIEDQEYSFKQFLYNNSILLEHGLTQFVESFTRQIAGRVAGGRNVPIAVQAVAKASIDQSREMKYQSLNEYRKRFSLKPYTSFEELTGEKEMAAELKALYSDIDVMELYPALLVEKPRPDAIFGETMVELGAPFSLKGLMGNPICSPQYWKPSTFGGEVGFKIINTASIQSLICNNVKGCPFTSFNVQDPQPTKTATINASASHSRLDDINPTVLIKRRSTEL
Description: as §1

effect on constitutively expressed COX-1 activity (COX-1): no effect | effect on inducible COX-2 activity (COX-2): completely and selectively abrogated
Structure (SMILES): COc1ccc(-c2ncc3c(OC)c(OC)ccc3c2O)cc1 [Compound B]
loss in cell viability (cytotoxicity) [1]: no significant loss in cell viability | inhibition of LPS-induced IL-10 production (IL-10 production): dose-dependent inhibition | body weight [2]: No change in body weight | clinical score [2]: significantly lower clinical scores | number of joints affected [2]: fewer joints affected | paw thickness [2]: reduced paw thickness | concentration at which the maximal inhibitory effect on TNF-alpha induced cell killing was attained ([3]; 100 pg/ml or 50 pg/ml TNF-alpha, 20 hr, inhibition proportional to dose up to this concentration): 10 µM | inhibition of TNF-alpha induced cell killing (increased cell viability) ([3]; 100 μg/ml compound, 100 pg/ml or 1 pg/ml TNF-alpha, 20 hr co-incubation, relative to untreated or berberine-treated cells): inhibited TNF-alpha induced cell killing | inhibition of LPS-induced TNF-alpha production (TNF-alpha production): ~50% | inhibition of LPS-induced IL-6 production (IL-6 production): up to 60%
